Data on 36 compounds can be found in patent US11286268B1, “EIF4E-inhibiting compounds and methods” (EFFECTOR THERAPEUTICS, INC., priority 2019, dated 2022).

The target in this test is recombinant eIF4E (Homo sapiens (Human), UniProt P06730). Description: Fluorescence polarization competition assay for eIF4E binding potency. The procedure, abridged: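 Competition of test compound against 20 nM EDA-m^7GDP-ATTO-550 for 75 nM recombinant eIF4E, pre-incubated 5 min, in 20 mM Tris pH 7.5, 100 mM NaCl, 1 mM DTT, 0.02% Tween-20, 1% DMSO. Equilibrated 30 min at room temperature, dark; fluorescence polarization read. IC50 from 8-point, 3-fold dilution series.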
For orientation: Polarisation of emitted light reports the rotation of a fluorescent probe.

Where [1] appears, read: fluorescence polarization competition, 75 nM recombinant eIF4E, 20 nM EDA-m7GDP-ATTO-550, IC50 class, read-out: elF4E FP.
Where [2] appears, read: inhibition of eIF4E/EDA-m7GDP-ATTO-550 binding by 50%, Table 4B calculated values, read-out: IC50.
[3] abbreviates: inhibition of eIF4E/EDA-m7GDP-ATTO-550 binding, calculated IC50 values, Table 4B, read-out: IC50.

Where two headings read alike, the source gives them in different places.

Chain of recombinant eIF4E (P06730 whole entry): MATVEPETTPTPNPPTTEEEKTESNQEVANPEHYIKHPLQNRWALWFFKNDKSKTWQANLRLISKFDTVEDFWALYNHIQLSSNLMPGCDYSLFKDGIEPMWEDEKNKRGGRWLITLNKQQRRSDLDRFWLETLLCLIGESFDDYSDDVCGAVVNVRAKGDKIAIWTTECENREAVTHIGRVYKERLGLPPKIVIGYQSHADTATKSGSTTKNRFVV

As to `C#Cc1c(C(=O)O)cccc1-c1cc(Cl)ccc1OCCn1c(CF)nc2cc(C#N)cc(C#N)c2c1=O` [compound 232], the IC50 under setting [1] is below 50 nM and the IC50 under setting [2] was 16.3 nM.
As for `Cc1nc2cnccc2c(=O)n1CCOc1ccc(Cl)cc1-c1cccc(C(=O)O)c1` [compound 1], the IC50 runs as follows: under setting [1], 50 to 1000 nM; under setting [2], 281 nM.
In the case of `Cc1nc2cnc(N3CCCC4(CCN4CC(F)F)C3)c(C#N)c2c(=O)n1CCOc1ccc(Cl)cc1-c1ccnc2c(C(=O)O)csc12` (centres unmarked) [compound 1649], the IC50 under setting [3] was 18.3 nM.
On to `Cc1cc(-c2cc(Cl)ccc2OCCn2c(C)nc3cnc(-c4ccc(Cl)cc4)c(C#N)c3c2=O)c2scc(C(=O)O)c2n1` [compound 949], for which the IC50 runs as follows: under setting [1], below 50 nM; under setting [2], 37.3 nM.
As to `Cc1nc2cnc(N(C)C3CCN(CC(F)(F)F)CC3)c(C#N)c2c(=O)n1CCOc1ccc(Cl)cc1-c1ccnc2c(C(=O)NS(C)(=O)=O)csc12` [compound 1157], the IC50 reads like this: under setting [1], below 50 nM; under setting [2], 22 nM.
On the same counts, the results for `Cc1nc2cnc(C3CC3)c(C#N)c2c(=O)n1CCOc1ccc(Cl)cc1-c1ccc(Cl)c2c(C(=O)O)csc12` [compound 773] are below 50 nM and 10.2 nM.
In the case of `Cc1nc2cc(C(F)(F)F)c3c(c2c(=O)n1CCOc1ccc(Cl)cc1-c1ccnc2c(C(=O)O)csc12)C(=O)OC3` [compound 1972], under setting [3], the IC50 is 18 nM.
With `COc1cc(-c2cc(Cl)ccc2OCCn2cnc3cnc(C#N)cc3c2=O)cc(C(=O)O)c1OC` [compound 107], the IC50 was above 1000 nM under setting [1] and 3820 nM under setting [2].
With `Cc1nc2cnc(N3CCN(CC(F)(F)Cl)CC3)c(C#N)c2c(=O)n1CCOc1ccc(Cl)cc1-c1ccnc2c(C(=O)O)csc12` [compound 1474], the IC50 under setting [3] is 13.8 nM.
On to `Cc1nc2cc(CN(C)Cc3cn(C)nn3)c(OC(F)F)c(C#N)c2c(=O)n1CCOc1ccc(Cl)cc1-c1ccnc2c(C(=O)O)csc12` [compound 651], for which the IC50 under setting [1] was below 50 nM and the IC50 under setting [2] was 21.8 nM.
Consider `Cc1nc2cnc(N3CCN(C)C4CC43)c(C#N)c2c(=O)n1CCOc1ccc(Cl)cc1-c1cccc2c(C(=O)O)csc12` (centres unmarked) [compound 2020], for which, under setting [3], the IC50 is 33 nM.
Regarding `Cc1cc(-c2cc(Cl)ccc2OCCn2c(C)nc3cnc(N4CC(OC(F)(F)F)C4)c(C#N)c3c2=O)c2scc(C(=O)O)c2n1` [compound 1042], the IC50 reads like this: under setting [1], below 50 nM; under setting [2], 26.5 nM.
For `Cc1nc2cnc(N(C)C3C[C@H]4C[C@@H]3CN4CC(C)(F)F)c(C#N)c2c(=O)n1CC#Cc1ccc(Cl)cc1-c1ccnc2c(C(=O)O)csc12` (some centres unmarked) [compound 1689], the IC50 under setting [3] was 22.2 nM.
With `N#Cc1cncc2nc(CCC(=O)O)n(CCOc3ccc(Cl)cc3-c3ccccc3)c(=O)c12` [compound 48], the IC50 was 50 to 1000 nM under setting [1] and 631 nM under setting [2].
Taken in the same sequence, the figures for `Cc1nc2cc(C(F)(F)F)cc(C#N)c2c(=O)n1CCOc1ccc(Cl)cc1-c1ccnc2c(C(=O)O)c(Cl)sc12` [compound 266] were below 50 nM and 26.6 nM.
For `Cc1nc2cnc(N3CCN(C)C(C(F)F)C3)c(C#N)c2c(=O)n1CCOc1ccc(Cl)cc1-c1ccnc2c(C(=O)O)csc12` (centres unmarked) [compound 1305], the IC50 under setting [3] is 26.5 nM.
As to `Cc1cc(-c2cc(Cl)ccc2OCCn2c(C)nc3cc(C(F)(F)F)c(N4CCN(C)CC4)nc3c2=O)c2scc(C(=O)O)c2n1` [compound 676], the IC50 reads like this: under setting [1], below 50 nM; under setting [2], 6.22 nM.
On the same counts, the results for `Cc1nc2cc(C(F)(F)F)cc(C#N)c2c(=O)n1CCOc1ccc(Cl)cc1-c1snc2c(C(=O)O)csc12` [compound 265] are 50 to 1000 nM and 77.1 nM.
Regarding `Cc1nc2cnc(/C=C/CN3CC(F)C3)c(C#N)c2c(=O)n1CCOc1ccc(Cl)cc1-c1ccnc2c(C(=O)O)csc12` [compound 1122], the IC50 is below 50 nM under setting [1] and 14.6 nM under setting [2].
`Cc1nc2cnc(N3CC4(CNC4)C3)c(C#N)c2c(=O)n1CC#Cc1ccc(Cl)cc1-c1ccnc2c(C(=O)O)csc12` [compound 1633]: under setting [3], the IC50 was 52.6 nM.
With `Cc1nc2cc(CN(C)C)c(OC(F)(F)F)c(C#N)c2c(=O)n1CCOc1ccc(Cl)cc1-c1ccnc2c(C(=O)O)csc12` [compound 552], the IC50 was 50 to 1000 nM under setting [1] and 50.9 nM under setting [2].
For `Cc1cc(-c2cc(Cl)ccc2OCCn2c(C)nc3cc(OC(F)F)c(F)c(C#N)c3c2=O)c2scc(C(=O)O)c2n1` [compound 585], the IC50 was below 50 nM under setting [1] and 29.6 nM under setting [2].
Turning to `Cc1nc2cc(C(F)(F)F)c(N3CCN(CC(F)F)CC3)c(C#N)c2c(=O)n1CCOc1ccc(Cl)cc1-c1ccnc2c(C(=O)O)csc12` [compound 1239], the IC50 reads like this: under setting [1], below 50 nM; under setting [3], 18.2 nM.
Take `N#Cc1cncc2nc(C(F)F)n(CCOc3ccc(Cl)cc3-c3ccnc4c(C(=O)O)csc34)c(=O)c12` [compound 39]: the IC50 was 50 to 1000 nM under setting [1] and 116 nM under setting [2].
In the case of `Cc1cc(-c2cc(Cl)ccc2OCCn2c(C)nc3cc(C(F)(F)F)c(-c4ccncc4)nc3c2=O)c2scc(C(=O)O)c2n1` [compound 464], the IC50 is below 50 nM under setting [1] and 21.4 nM under setting [2].
Taken in the same sequence, the figures for `Cc1nc2c(N(C)C3CC4CCC(C3)N4C)ncc(C#N)c2c(=O)n1CCOc1ccc(Cl)cc1-c1ccnc2c(C(=O)O)csc12` (centres unmarked) [compound 863] were below 50 nM and 45.5 nM.
In the case of `Cc1cc(-c2c(C(F)(F)F)cc3nc(C)n(CCOc4ccc(Cl)cc4-c4cc(C)nc5c(C(=O)O)csc45)c(=O)c3c2C#N)cc(C)n1` [compound 465], the IC50 is, setting by setting: under setting [1], below 50 nM; under setting [2], 15.1 nM.
Taken in the same sequence, the figures for `Cc1nc2cc(C(F)(F)F)c(CCN(C)C)cc2c(=O)n1CCOc1ccc(Cl)cc1-c1ccnc2c(C(=O)O)csc12` [compound 858] were below 50 nM and 7.28 nM.
Taken in the same sequence, the figures for `Cc1nc2cc(Cl)c(CN(C)C)c(C#N)c2c(=O)n1CCOc1ccc(Cl)cc1-c1ccnc2c(C(=O)O)csc12` [compound 509] were 50 to 1000 nM and 125 nM.
As to `Cc1nc2cnc(N3CCN(CCC(F)(F)F)CC3)c(C#N)c2c(=O)n1CC#Cc1ccc(Cl)cc1-c1ccnc2c(C(=O)NS(C)(=O)=O)csc12` [compound 1486], the IC50 under setting [3] was 10.7 nM.
With `CCc1cc(-c2cc(Cl)ccc2OCCn2c(C)nc3cc(C(F)(F)F)c(-c4ccn(C)n4)c(C#N)c3c2=O)c2scc(C(=O)O)c2n1` [compound 1014], the IC50 under setting [1] was below 50 nM and the IC50 under setting [2] is 25.6 nM.
In the case of `Cc1cc(-c2cc(Cl)ccc2OCCn2c(C)nc3cnc(-c4cc(F)ccc4C)c(C#N)c3c2=O)c2scc(C(=O)O)c2n1` [compound 1052], the IC50 runs as follows: under setting [1], below 50 nM; under setting [2], 5.46 nM.
On to `Cc1cc(-c2cc(Cl)ccc2OCCn2c(C)nc3cc(C)c(CN(C)C)c(C#N)c3c2=O)c2scc(C(=O)O)c2n1` [compound 1379], for which the IC50 under setting [3] was 18 nM.
With `CCc1ncc2nc(C)n(CCOc3ccc(Cl)cc3-c3ccnc4c(C(=O)O)csc34)c(=O)c2c1C#N` [compound 813], the IC50 is below 50 nM under setting [1] and 4.04 nM under setting [2].
`Cc1nc2c(N(C)C3CCN(C)CC3F)ncc(C#N)c2c(=O)n1CCOc1ccc(Cl)cc1-c1ccnc2c(C(=O)O)csc12` (centres unmarked) [compound 862]: the IC50 by setting is: under setting [1], below 50 nM; under setting [2], 20.9 nM.
Consider `Cc1nc2cnc(N(C)C3CCN(C4CC(F)(F)C4)CC3)c(C#N)c2c(=O)n1CC#Cc1ccc(Cl)cc1-c1ccnc2c(C(=O)NS(=O)(=O)CC(F)F)csc12` [compound 1819], for which the IC50 under setting [3] was 4.4 nM.
